Results on 22 compounds are retold here after patent publication US6576619B2 (CV Therapeutics, Inc., priority 1999, dated 2003).

One test addresses T1, adenosine A1 (Homo sapiens, UniProt P30542).
T1 sequence (P30542 1-326): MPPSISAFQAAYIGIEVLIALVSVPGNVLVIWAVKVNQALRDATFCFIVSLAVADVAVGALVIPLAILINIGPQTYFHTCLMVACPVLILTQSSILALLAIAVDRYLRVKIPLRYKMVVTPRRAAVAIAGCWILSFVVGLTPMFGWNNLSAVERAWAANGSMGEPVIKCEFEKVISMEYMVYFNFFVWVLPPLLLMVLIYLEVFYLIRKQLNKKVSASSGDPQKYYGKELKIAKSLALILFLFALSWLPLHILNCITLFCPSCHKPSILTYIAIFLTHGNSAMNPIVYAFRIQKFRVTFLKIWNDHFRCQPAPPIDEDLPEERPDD
As to conditions: from Snowdy et al. abstract and WO 98/08855; cited from earlier work.

The subject of test [1] is Rat Heart Rate. In words: Effect on rat heart rate (telemetry) after administration of pro-drug. Type of test: in vivo, Sprague Dawley rats. The following applies: for decrease in heart rate: oral gavage, dose of 0.5 mg/kg.
For test [2], the system named is Rat Heart Rate. The test is described as above. Also on record: key to Effect on Heart Rate: +++: Heart Rate decreased by 100-150 BPM; ++: Heart Rate decreased by 50-100 BPM; +: Heart rate decreased by 50 BPM; =/−: No reproducible effect on Heart Rate.; −: No effect on Heart Rate. The test is classed as in vivo, Sprague Dawley rats. As to conditions: for Effect on Heart Rate: rat, oral gavage, 500 μGram dose, average of 3-6 rats. As for the experimental part: Adult male and female Sprague Dawley rats were implanted with transducer/emitter modules of the Data Science Telemetry system (St. Paul, Minn.) to allow continuous monitoring of heart rate (HR). At the start of the experiment, basal HR was determine for 1 hour prior to gavage. A 500 μg dose of compounds prepared according to Examples 1-4 was administered to by oral gavage. The compounds were each prepared as stock solutions in DMSO and diluted at least 1:1000 in water for gavage. Following administration, HR was determined every five minutes. In these experiments, 3-6 rats were used to test each compounds. An average of the HR results are reported in Table 1, below and in FIGS. 1A, 2A, 3A and 4A.
Compound 1, identified above is an A1 Agonist. […] Thus, this in vivo assay is a measure of effect on heart rate following the oral administration of a pro-drug of a potent adenosine A1 agonist. The plasma concentrations of compound 1 was determined over time by cannulating the jugular of a separate specimen for subsequent blood collection. After a 24 hour recovery period, a pre-dose baseline HR as determined followed by gavage or IP injection of a compound being tested. Blood samples were taken and the concentration of compound 1 in the plasma was determined using LC/MS/MS methodologies.

`OC[C@H]1O[C@@H](n2cnc3c(N[C@@H]4CCOC4)ncnc32)[C@H](O)[C@@H]1O` [Compound 1]: the “adenosine A1 agonist activity” value at adenosine A1 is reported as “potent, selective adenosine A1 agonist”. Further, the “effect on heart rate of the sinus rhythm” value in the test on Rat Heart Rate [1] (rat, IP, 0.025 mg) is reported as “lowers the heart rate”.

For `CC(=O)OC[C@H]1OC(n2cnc3c(N[C@@H]4CCOC4)ncnc32)[C@H](OC(C)=O)[C@@H]1OC(C)=O` (stereo partly drawn) [Compound 2, (5-{6-[((3R)oxolan-3-yl)amino]purin-9-yl}(2R, 3R, 4R)-3,4-diacetyloxyoxolan-2-yl)methyl acetate], in the test on Rat Heart Rate [2], the “Effect on Heart Rate” value is recorded as “+++ (Heart Rate decreased by 100-150 BPM)”. Further, the “reversibility of effect on heart rate by theophylline” value in the test with Rat Heart Rate [1] (rats, oral gavage 0.5 mg/kg, then theophylline 7.5 mg/kg) is reported as “reversible”. For the same compound, the “decrease in heart rate” value with Rat Heart Rate [1] (rats) is given as 100-150 beats per minute.

Regarding `CCCC(=O)OC[C@H]1OC(n2cnc3c(N[C@@H]4CCOC4)ncnc32)[C@H](OC(=O)CCC)[C@@H]1OC(=O)CCC` (stereo partly drawn) [Compound 4, (5-{6-[((3R)oxolan-3-yl)amino]purin-9-yl}(2R, 3R, 4R)-3,4-dibutanoyloxyoxolan-2-yl)methyl butanoate], the “Effect on Heart Rate” value with Rat Heart Rate [2] is recorded as “+ (Heart rate decreased by 50 BPM)”.

In the case of `CC(C)C(=O)OC[C@H]1OC(n2cnc3c(N[C@@H]4CCOC4)ncnc32)[C@H](OC(=O)C(C)C)[C@@H]1OC(=O)C(C)C` (stereo partly drawn) [Compound 6, (5-{6-[((3R)oxolan-3-yl)amino]purin-9-yl}(2R, 3R, 4R)-3,4-bis(2-methylpropanoyloxy)oxolan-2-yl)methyl 2-methylpropanoate], the “Effect on Heart Rate” value in the test with Rat Heart Rate [2] was “++ (Heart Rate decreased by 50-100 BPM)”.

`CCC(=O)OC[C@H]1OC(n2cnc3c(N[C@@H]4CCOC4)ncnc32)[C@H](OC(=O)CC)[C@@H]1OC(=O)CC` (stereo partly drawn) [Compound 7, (2-{6-[((3R)oxolan-3-yl)amino]purin-9-yl}(3R, 4R, 5R)-4-propanoyloxy-5-(propanoyloxymethyl)oxolan-3-yl propanoate]: the “Effect on Heart Rate” value in the test on Rat Heart Rate [2] is reported as “+ (Heart rate decreased by 50 BPM)”.

`O=C(OC[C@H]1OC(n2cnc3c(N[C@@H]4CCOC4)ncnc32)[C@H](OC(=O)C2CCCC2)[C@@H]1OC(=O)C1CCCC1)C1CCCC1` (stereo partly drawn) [Compound 8, 2-{6-[((3R)oxolan-3-yl)amino]purin-9-yl}(3R, 4R, 5R)-4-cyclopentylcarbonyloxy-5-(cyclopentylcarbonyloxymethyl)oxolan-3-yl cyclopentanecarboxylate]: the “Effect on Heart Rate” value in the test with Rat Heart Rate [2] is given as “+++ (Heart Rate decreased by 100-150 BPM)”. In the test on Rat Heart Rate [1] (rats), the “decrease in heart rate” value was 100-150 beats per minute.

In the case of `CCOCC(=O)OC[C@H]1OC(n2cnc3c(N[C@@H]4CCOC4)ncnc32)[C@H](OC(=O)COCC)[C@@H]1OC(=O)COCC` (stereo partly drawn) [Compound 9, 2-{6-[((3R)oxolan-3-yl)amino]purin-9-yl}(3R, 4R, 5R)-4-(2-ethoxyacetyloxy)-5-[(2-ethoxyacetyloxy)methyl]oxolan-3-yl 2-ethoxyacetate], in the test on Rat Heart Rate [2], the “Effect on Heart Rate” value is reported as “++ (Heart Rate decreased by 50-100 BPM)”.

`O=C(COCc1ccccc1)OC[C@H]1OC(n2cnc3c(N[C@@H]4CCOC4)ncnc32)[C@H](OC(=O)COCc2ccccc2)[C@@H]1OC(=O)COCc1ccccc1` (stereo partly drawn) [Compound 10, (5-{6-[((3R)oxolan-3-yl)amino]purin-9-yl}(2R, 3R, 4R)-3,4-bis[2-(phenylmethoxy)acetyloxy]oxolan-2-yl)methyl 2-(phenylmethoxy)acetate]: in the test with Rat Heart Rate [2], the “Effect on Heart Rate” value is “+ (Heart rate decreased by 50 BPM)”.

Consider `O=C(Cc1ccc([N+](=O)[O-])cc1)OC[C@H]1OC(n2cnc3c(N[C@@H]4CCOC4)ncnc32)[C@H](OC(=O)Cc2ccc([N+](=O)[O-])cc2)[C@@H]1OC(=O)Cc1ccc([N+](=O)[O-])cc1` (stereo partly shown) [Compound 11], for which the “Effect on Heart Rate” value in the test with Rat Heart Rate [2] was “−”.

In the case of `NCC(=O)OC[C@H]1OC(n2cnc3c(N[C@@H]4CCOC4)ncnc32)[C@H](OC(=O)CN)[C@@H]1OC(=O)CN` (stereo partly drawn) [Compound 12, 2-{6[((3R)oxolan-3-yl)amino]purin-9-yl}(3R, 4R, 5R)-4-(2-aminoacetyloxy)-5-[(2-aminoacetyloxy)methyl]oxolan-3-yl 2-aminoacetate], the “Effect on Heart Rate” value in the test on Rat Heart Rate [2] is on record as “−”.

Regarding `O=C(Cc1ccccc1)OC[C@H]1OC(n2cnc3c(N[C@@H]4CCOC4)ncnc32)[C@H](OC(=O)Cc2ccccc2)[C@@H]1OC(=O)Cc1ccccc1` (stereo partly drawn) [Compound 13, (5-{6-[((3R)oxolan-3-yl)amino]purin-9-yl}(2R, 3R, 4R)-3,4-bis(2-phenylethanoyloxy)oxolan-2-yl)methyl 2-phenylethananoate], the “Effect on Heart Rate” value in the test with Rat Heart Rate [2] is reported as “−”.

Regarding `O=C(OC[C@H]1OC(n2cnc3c(N[C@@H]4CCOC4)ncnc32)[C@H](OC(=O)c2cccnc2)[C@@H]1OC(=O)c1cccnc1)c1cccnc1` (stereo partly drawn) [Compound 14, (5-{6-[((3R)oxolan-3-yl)amino]purin-9-yl}(2R, 3R, 4R)-3,4-di(3-pyridylcarbonyloxy)oxolan-2-yl)methyl pyridine-3-carboxylate], the “Effect on Heart Rate” value in the test with Rat Heart Rate [2] was “+ (Heart rate decreased by 50 BPM)”.

On to `CC(=O)OC[C@H]1OC(n2cnc3c(N[C@@H]4CCOC4)ncnc32)[C@H](OC(=O)C(C)C)[C@@H]1OC(=O)C(C)C` (stereo partly drawn) [Compound 15, 2-{6-[((3R)oxolan-3-yl)amino]purin-9-yl}(3R, 4R, 5R)-5-(acetyloxymethyl)-4-(2-methylpropanoyloxy)oxolan-3-yl 2-methylpropanoate], for which the “Effect on Heart Rate” value with Rat Heart Rate [2] is recorded as “+++ (Heart Rate decreased by 100-150 BPM)”. The “decrease in heart rate” value in the test on Rat Heart Rate [1] (rats) was 100-150 beats per minute.

`CC(=O)OC[C@H]1OC(n2cnc3c(NC4CCOC4)ncnc32)[C@H](OC(=O)C2CCCC2)[C@@H]1OC(=O)C1CCCC1` (stereo partly shown) [Compound 16]: in the test with Rat Heart Rate [2], the “Effect on Heart Rate” value is reported as “+ (Heart rate decreased by 50 BPM)”.

As for `CC(C)C(=O)O[C@@H]1[C@@H](COC(=O)C2CCCC2)OC(n2cnc3c(N[C@@H]4CCOC4)ncnc32)[C@@H]1OC(=O)C(C)C` (stereo partly drawn) [Compound 17, 2-{6-[((3R)oxolan-3-yl)amino]purin-9-yl}(3R, 4R, 5R)-5-(cyclopentylcarbonyloxymethyl)-4-(2-methylpropanoyloxy)oxolan-3-yl 2-methylpropanoate], the “Effect on Heart Rate” value with Rat Heart Rate [2] was “−”.

With `CC(=O)O[C@@H]1[C@@H](COC(=O)C2CCCC2)OC(n2cnc3c(N[C@@H]4CCOC4)ncnc32)[C@@H]1OC(C)=O` (stereo partly drawn) [Compound 18, 2-{6-[((3R)oxolan-3-yl)amino]purin-9-yl}(3R, 4R, 5R)-4-acetyloxy-5-(cyclopentylcarbonyloxymethyl)oxolan-3-yl acetate], the “Effect on Heart Rate” value with Rat Heart Rate [2] is “+ (Heart rate decreased by 50 BPM)”.

For the compound `CC(=O)O[C@@H]1[C@@H](COC(=O)C(C)C)OC(n2cnc3c(N[C@@H]4CCOC4)ncnc32)[C@@H]1OC(C)=O` (stereo partly drawn) [Compound 19, (5-{6-[((3R)oxolan-3-yl)amino]purin-9-yl}(2R, 3R, 4R)-3,4-diacetyloxyoxolan-2-yl)methyl 2-methylpropanoate], the “Effect on Heart Rate” value in the test with Rat Heart Rate [2] was “+++ (Heart Rate decreased by 100-150 BPM)”. Moreover, the “decrease in heart rate” value with Rat Heart Rate [1] (rats) is 100-150 beats per minute.

Consider `CC(C)C(=O)OC[C@H]1OC(n2cnc3c(NC4CCOC4)ncnc32)[C@H](OC(=O)C2CCCC2)[C@@H]1OC(=O)C1CCCC1` (stereo partly shown) [Compound 20], for which the “Effect on Heart Rate” value in the test on Rat Heart Rate [2] is on record as “−”.

In the case of `CC(=O)O[C@@H]1[C@H](OC(C)=O)[C@@H](COC(=O)[C@@H](N)C(C)C)O[C@H]1n1cnc2c(N[C@@H]3CCOC3)ncnc21` [Compound 21, (5-{6-[((3R)oxolan-3-yl)amino]purin-9-yl}(2R, 3R, 4R)-3,4-diacetyloxyoxolan-2-yl)methyl (2S)-2-amino-3-methylbutanoate], the “Effect on Heart Rate” value in the test on Rat Heart Rate [2] is reported as “+ (Heart rate decreased by 50 BPM)”.

Take `CC(C)[C@H](N)C(=O)OC[C@H]1O[C@@H](n2cnc3c(N[C@@H]4CCOC4)ncnc32)[C@H](O)[C@@H]1O` [Compound 28, (5-{6-[((3R)oxolan-3-yl)amino]purin-9-yl}(2R, 3S, 4R)-3,4-dihydroxyoxolan-2-yl)methyl (2S)-2-amino-3-methylbutanoate]: the “Effect on Heart Rate” value with Rat Heart Rate [2] was “−”.

For `CC(=O)O[C@@H]1[C@@H](CO)OC(n2cnc3c(N[C@@H]4CCOC4)ncnc32)[C@@H]1OC(C)=O` (stereo partly drawn) [Compound 31, 2-{6-[((3R)oxolan-3-yl)amino]purin-9-yl}(3R, 4R, 5R)-4-acetyloxy-5-(hydroxymethyl)oxolan-3-yl acetate], the “activity upon oral dosing in rats” value in the test on Rat Heart Rate [2] (rats, oral dosing, compared with the triple pro-drugs (Table 1)) is reported as “lower activity”.

For `CC(=O)OC[C@H]1OC(n2cnc3c(N[C@@H]4CCOC4)ncnc32)[C@H](O)[C@@H]1O` (stereo partly drawn) [Compound 34, (5-{6-[((3R)oxolan-3-yl)amino]purin-9-yl}(3S, 2R, 4R)-3,4-dihydroxyoxolan-2-yl)methyl acetate], the “Effect on Heart Rate” value with Rat Heart Rate [2] is “−”.
